The nature of one series: in vitro. The settings on record: mouse. As to the method:
(§1) The cytotoxic effect of kojyl thioether derivatives was then evaluated by a conventional MTT assay. At 3 h prior to culture termination, MTT solution (10 μL, 5 mg/mL in a phosphate buffered-saline, pH 7.4) was added and the cells were continuously cultured until termination. The incubation was halted by the addition of 15% sodium dodecyl sulfate into each well, solubilizing formazan. The absorbance at 570 nm (OD570–630) was measured by a Spectramax 250 microplate reader.

The subject of series [1] is NF-κB-mediated luciferase activity. The series is described as follows: NF-κB-mediated luciferase assay in HEK293 cells. It is filed as cell-based. The settings on record: HEK293 cells transfected with NF-κB-Luc, PMA 0.1 μM, 24 h, read-out: Inhibitory activity [IC50] NF-κB-mediated luciferase activity. The method, then:
HEK293 cells (1 × 10^6 cells/mL) were transfected with plasmids containing NF-κB-Luc, (1 μg/mL each) as well as β-galactosidase (0.5 μg/mL) using the PEI method in a 12-well plate for 48 h, and they were treated with testing compounds in the presence or absence of PMA (0.1 μM) for 24 h. Luciferase assay was performed using the Luciferse Assay System (Promega).

The test system of series [2] is B16 melanoma cells. The series is described as follows: Depigmenting activity (melanin content) in B16 melanoma cells. It counts as cell-based. Particulars: for IC50: Mus musculus, 120 h, 5 days, melanin content, read-out: Inhibitory activity [IC50] Depigmentation. The method, then:
The cell pellets were then dissolved in 1 N NaOH in 10% DMSO (500 μL) at 80 °C for 1 h. The relative melanin content was determined by measuring the absorbance at 475 nm with an ELISA reader (Molecular Devices Corp., Menlo Park, CA, USA). A standard synthetic melanin curve (0–500 μg⁄mL) was prepared in triplicate for each experiment.

The nature of series [3]: Cytotoxicity towards B16 melanoma cells. It counts as cell-based. Particulars: mouse, read-out: Inhibitory activity [IC50] Cytotoxicity.
Series [4] concerns NO production in LPS-activated RAW264.7 cells. The series is described as follows: Inhibition of NO production induced by LPS in RAW264.7 cells (Griess). It is filed as cell-based. Particulars: Mus musculus, LPS 1 μg/mL, 24 h, read-out: Inhibitory activity [IC50] NO. As to the method:
The nitrite in the culture supernatants was measured by adding Griess reagent (100 μL, 1% sulfanilamide and 0.1% N-[1-naphthyl]-ethylenediamine dihydrochloride in 5% phosphoric acid) to samples of the medium (100 μL) for 10 min at room temperature. The OD at 570 nm (OD570) was measured using a Spectramax 250 microplate reader (Molecular Devices). A standard curve of NO was made with sodium nitrite.
For orientation: Nitrite, measured by Griess reagent, commonly stands in for NO production.

A further series relates to Tyrosinase. Also on record: method as in PMID 21050756. The settings on record: previously reported, cited from earlier work; for IC50: means of three experiments, read-out: Inhibitory activity [IC50] Tyrosinase.
For a further series, the system named is iNOS mRNA. The series is described as follows: Expression of iNOS mRNA in LPS-activated RAW 264.7 cells (RT-PCR). It counts as cell-based. The settings on record: 25–100 μM, LPS 1 μg/mL for 6 h. The method, then: RAW 264.7 cells were treated with different concentrations of compound 1 and 2 (25–100 μM) and then stimulated with LPS (1 μg/mL) for 6 h.
The total RNA from the LPS treated-RAW264.7 cells was prepared by adding TRIzol Reagent (Gibco BRL), as per the manufacturer’s instructions. Real-time PCR reactions were conducted using MuLV reverse transcriptase. The primers (Bioneer, Daejeon, Korea) were used as previously reported.

A further series deals with RAW264.7 cells. Nature of the series: Cytotoxicity in RAW264.7 cells (MTT). As to the method: as §1
Series [5] deals with B16 melanoma cells. Nature of the series: Cytotoxicity towards B16 melanoma cells. It is filed as cell-based.

Read-outs that look alike come from different tables or passages of the source.

For orientation: IC50 means the midpoint of a concentration-inhibition curve. Consider `C[C@@H]1O[C@@H](Oc2c(-c3ccc(O)cc3)oc3cc(O)cc(O)c3c2=O)[C@H](O)[C@H](O)[C@H]1O` [Afzelin (3), kaempferol 3-O-α-L-rhamnopyranoside], for which the IC50 at 24 h in “in vitro” was above 100 µM. Besides, the IC50 (in [1] (Homo sapiens); in the series with B16 melanoma cells [2]; in series [3]; in series [4]) was above 100 µM throughout. Also, the “Tyrosinase inhibitory activity (in words)” value in the series on Tyrosinase is “showed no inhibitory activities”.

Consider `OC[C@H]1O[C@@H](Oc2ccc(O)cc2)[C@H](O)[C@@H](O)[C@@H]1O` [Arbutin, reference compound], for which the IC50 in the series with B16 melanoma cells [2] was 171 ± 2.1 µM; in series [3], above 200 µM.

In the case of `Cc1ccc(S(=O)(=O)/C=C/C#N)cc1` [BAY11-7082, reference compound], the IC50 in series [1] came out at 11.5 ± 0.1 µM.

In the case of `C[C@@H]1O[C@@H](Oc2cc(O)c3c(=O)c(O[C@@H]4O[C@@H](C)[C@H](O)[C@@H](O)[C@H]4O)c(-c4ccc(O)cc4)oc3c2)[C@H](O)[C@H](O)[C@H]1O` [Kaempferitrin (4), kaempferol-3,7-O-α-dirhamnoside], the IC50 at 24 h in the series “in vitro” was above 100 µM. Also, the IC50 (in [1] (Homo sapiens); with B16 melanoma cells [2]; in [3]; in [4]) was above 100 µM throughout. In addition, in the series with Tyrosinase, the “Tyrosinase inhibitory activity (in words)” value is given as “showed no inhibitory activities”.

With `O=c1c(O)c(-c2ccc(O)cc2)oc2cc(O)cc(O)c12` [Kaempferol (1), kaempferol], the “Expression of iNOS mRNA (in words)” value with iNOS mRNA is listed as “suppressed the expression of iNOS mRNA in a dose-dependent manner”. Further, the “Cytotoxicity in the NO assay cells (in words)” value in the series on RAW264.7 cells (RAW264.7 cells) is listed as “without cytotoxicity”. The molecule also had a concentration for half-maximal inhibition (IC50) at 24 h in “in vitro” (RAW264.7 cells) above 100 µM. For the same molecule, the IC50 in series [1] (Homo sapiens) was 90.3 ± 5.1 µM; with B16 melanoma cells [2], 37.66 ± 0.1 µM; in [3], 25.6 ± 0.9 µM; in series [4] it was 15.4 ± 0.2 µM; at Tyrosinase, 171.4 ± 0.9 µM. The “Depigmenting inhibitory activity (in words)” value in the series on B16 melanoma cells [2] was “showed inhibitory activity”. Further, the “Cytotoxicity towards B16 melanoma cells (in words)” value in the series on B16 melanoma cells [5] is listed as “showed cytotoxicity towards B16 melanoma cells”. The “Tyrosinase inhibitory activity (in words)” value in the series on Tyrosinase is recorded as “showed tyrosinase inhibitory activities”.

For the molecule `CC(=O)CCCCn1c(=O)c2c(ncn2C)n(C)c1=O` [Pentoxifylline, pentoxifylline, reference compound], the IC50 at 24 h in the series “in vitro” (RAW264.7 cells) is above 1000 µM. In series [4], the IC50 was found to be 446 ± 1.1 µM.

Turning to `C[C@@H]1O[C@@H](Oc2cc(O)c3c(=O)c(O)c(-c4ccc(O)cc4)oc3c2)[C@H](O)[C@H](O)[C@H]1O` [α-Rhamnoisorobin (2), kaempferol 7-O-α-L-rhamnopyranoside], in the series with iNOS mRNA, the “Expression of iNOS mRNA (in words)” value was “suppressed the expression of iNOS mRNA in a dose-dependent manner”. In addition, the “Cytotoxicity in the NO assay cells (in words)” value with RAW264.7 cells is given as “without cytotoxicity”. Moreover, the IC50 at 24 h in “in vitro” was above 100 µM. Further, the IC50 is 36.2 ± 3.3 µM in series [1] (Homo sapiens); 39.5 ± 0.4 µM in the series on B16 melanoma cells [2]; 22.9 ± 1.3 µM in [3]; 37.7 ± 2 µM in [4]; above 400 µM at Tyrosinase. Moreover, the “Depigmenting inhibitory activity (in words)” value in the series with B16 melanoma cells [2] is “showed inhibitory activity”. In addition, the “Cytotoxicity towards B16 melanoma cells (in words)” value in the series with B16 melanoma cells [5] is given as “showed cytotoxicity towards B16 melanoma cells”. The “Tyrosinase inhibitory activity (in words)” value with Tyrosinase is listed as “showed tyrosinase inhibitory activities”.

The record behind these values is article PMC6260593, “Kaempferol and Kaempferol Rhamnosides with Depigmenting and Anti-Inflammatory Properties” (Molecules, 2011).
